Experimental findings from ChEMBL document CHEMBL1150159, “Semisynthetic analogues of the microtubule-stabilizing agent discodermolide: preparation and biological activity” (J Nat Prod, 2002) are described below.

One assay has as its system P388. The assay is described as follows: Cytotoxicity against mouse P388 cells. Format: functional, cell-based.
Another assay concerns A549. The assay is described as follows: Cytotoxicity against human A549 cells. Format: functional, cell-based.

Where only a bound is given, the exact number is not on record here.

A word on the IC50: it is the concentration that gives 50% inhibition. Read a low IC50 as higher potency. As to `C=C/C=C\[C@H](C)[C@H](OC(N)=O)[C@@H](C)[C@H](O)[C@@H](C)C/C(C)=C\[C@H](C)[C@H]1OC(=O)C=C[C@@H]1C`, the IC50 was found to be 3690 nM in the assay with P388 and 6.77 µM with A549.

In the assay with P388, `CCCC[C@H](C)[C@H](OC(N)=O)[C@@H](C)[C@H](OC(C)=O)[C@@H](C)C/C(C)=C\[C@H](C)[C@@H](OC(C)=O)[C@@H](C)CCCC[C@@H]1OC(=O)[C@H](C)[C@@H](OC(C)=O)[C@H]1C` returned an IC50 greater than 7050 nM.

Regarding `CCCC[C@H](C)[C@H](OC(N)=O)[C@@H](C)[C@H](O)[C@@H](C)C/C(C)=C\[C@H](C)[C@@H](O)[C@@H](C)CCCC[C@@H]1OC(=O)[C@H](C)[C@@H](O)[C@H]1C`, the IC50 turned out to be 309 nM in the assay with P388 and 0.377 µM with A549.

Consider `CCCC[C@H](C)[C@H](OC(N)=O)[C@@H](C)[C@H](O)[C@@H](C)CC(C)C[C@H](C)[C@@H](O)[C@@H](C)CC[C@@H](O)C[C@@H]1OC(=O)[C@H](C)[C@@H](O)[C@H]1C` (stereo partly drawn), for which the concentration for half-maximal inhibition (IC50) in the assay on P388 was greater than 8290 nM; in the assay on A549 it was greater than 8.29 µM.

For `C=C/C=C\[C@H](C)[C@H](OC(N)=O)[C@@H](C)[C@H](OC(C)=O)[C@@H](C)C/C(C)=C\[C@H](C)[C@@H](O)[C@@H](C)/C=C\[C@@H](O)C[C@@H]1OC(=O)C(C)=C[C@H]1C`, the values for the IC50 with P388 and with A549 were greater than 8100 nM and greater than 8.1 µM, respectively.

As for `CCCC[C@H](C)[C@H](OC(N)=O)[C@@H](C)[C@H](O)[C@@H](C)C/C(C)=C\[C@H](C)[C@@H](O)[C@@H](C)CC[C@@H](O)C[C@@H]1OC(=O)[C@H](C)[C@@H](O)[C@H]1C`, the IC50 in the assay on P388 turned out to be 33.8 nM; in the assay with A549, 0.0677 µM.

For `C=C/C=C\[C@H](C)[C@H](OC(N)=O)[C@@H](C)[C@H](OC(C)=O)[C@@H](C)C/C(C)=C\[C@H](C)[C@@H](OC(C)=O)[C@@H](C)/C=C\[C@@H](O)C[C@@H]1OC(=O)C(C)=C[C@H]1C`, the IC50 in the assay with P388 is greater than 7590 nM; in the assay with A549, greater than 7.59 µM.

For the compound `CCCC[C@H](C)[C@H](OC(N)=O)[C@@H](C)[C@H](O)[C@@H](C)C/C(C)=C\[C@H](C)[C@@H](O)[C@@H](C)/C=C\[C@@H](O)C[C@@H]1OC(=O)[C@H](C)[C@@H](O)[C@H]1C`, the concentration for half-maximal inhibition (IC50) in the assay with P388 came out at 10 nM; in the assay with A549 it was 0.0084 µM.

For `C=C/C=C\[C@H](C)[C@H](OC(N)=O)[C@@H](C)[C@H](OC(C)=O)[C@@H](C)C/C(C)=C\[C@H](C)[C@@H](OC(C)=O)[C@@H](C)/C=C\[C@H](C[C@@H]1OC(=O)C(C)=C[C@H]1C)OC(C)=O`, the concentration for half-maximal inhibition (IC50) is 7080 nM with P388 and greater than 7.13 µM with A549.

For `C=C/C=C\[C@H](C)[C@H](O)[C@@H](C)[C@H](O)[C@@H](C)C/C(C)=C\[C@H](C)[C@H]1OC(=O)C=C[C@@H]1C`, the IC50 in the assay with P388 is greater than 12800 nM; with A549 it was greater than 12.8 µM.

Regarding `C=C/C=C\[C@H](C)[C@H](OC(N)=O)[C@@H](C)[C@H](O)[C@@H](C)C/C(C)=C\[C@H](C)[C@@H](O)[C@@H](C)/C=C\[C@@H](O)C[C@@H]1OC(=O)C(C)=C[C@H]1C`, the results for the half-inhibitory concentration (IC50) in the assay on P388 and in the assay on A549 were 33.6 nM and 0.0217 µM, respectively.

Consider `C=C/C=C\[C@H](C)[C@H](OC(N)=O)[C@@H](C)[C@H](O)[C@@H](C)C/C(C)=C\[C@H](C)[C@@H](OC(C)=O)[C@@H](C)/C=C\[C@@H](O)C[C@@H]1OC(=O)C(C)=C[C@H]1C`, for which the values for the IC50 in the assay with P388 and in the assay with A549 were 519 nM and 3.13 µM, respectively.
